Laboratory results from US20090005437A1, “Alpha-Ketoglutarates and Their Use as Therapeutic Agents” (priority 2004, published 2009).

Legend:
PHD = PHD activity in cells co-expressing GFP-ODD fusion protein and HA-pVHL (GFP fluorescence, western blot); type: cell-based, human
HIF-1α = HIF-1α levels in cells incubated with DMS under normoxic conditions (western blot); type: cell-based; details: 20 mM, 48 hours
Source text: Protein analyses. […] Following SDS-PAGE, proteins were blotted onto nitrocellulose and analyzed with the following antibodies: anti-HIF-1α (BD Biosciences), anti-HA (Roche), anti-GFP (BD Biosciences) or anti-Actin (Sigma).

HIF1α [1] = assay: HIF1α induction in SDH-inhibited cells transfected with Di3 shRNA (western blot); type: cell-based; details: 24 hour treatment
HIF1α [2] = assay: HIF1α levels in HEK293 cells in which HIF1α was induced by DMS (western blot); type: cell-based, human; details: HEK293, DMS 24 hours, then ester 3 hours
HEK293 cells = assay: Measurement of intracellular α-ketoglutarate (glutamate dehydrogenase assay); type: cell-based, human; details: 1 mM, 5 hours
[3] = tested on: cells under hypoxic conditions; assay: Cell death of cells grown under hypoxic conditions (0.5% oxygen)
[4] = tested on: PHD (HIFα prolyl hydroxylase); assay: In vitro PHD activity (hydroxylation of in vitro-translated HA-ODDD by cell extracts, gel shift on SDS-PAGE); type: biochemical, human

## [Cl-].[Cl-].[Co+2] [CoCl2]
PHD
  GFP-ODD levels (western blot): increase in GFP-ODD levels

## COC(=O)CCC(=O)OC [DMS, dimethyl ester succinic acid]
HIF-1α
  HIF-1α levels (western blot): elevated levels of HIF-1α
PHD; 48 hours after treatment with DMS, 10% oxygen
  GFP fluorescence: increase in GFP fluorescence
PHD; DMS alone, 48 hours
  Level of GFP-ODD (western blot): rose

## O=C(O)CCC(=O)C(=O)OCc1cccc(C(F)(F)F)c1 [TFMB-α-ketoglutarate, 2-Oxopentanedioic acid 1-(3-trifluoromethyl-benzyl)ester]
HIF1α [1]
  HIF1α induction observed with Di3 transfection: reversed
HIF1α [2]
  HIF1α protein levels after DMS induction: substantially reduce the levels of HIF1α protein
PHD
  GFP fluorescence in DMS-treated cells: reduced GFP fluorescence

## O=C(O)CCC(=O)C(=O)O [free α-ketoglutaric acid, 2-Oxo-pentanedioic acid]
HEK293 cells
  Change of intracellular α-ketoglutarate above basal levels: no increase

## CCCCCCCCOC(=O)C(=O)CCC(=O)O [octyl-α-ketoglutarate, 2-Oxo-pentanedioic acid 1-octyl ester]
HIF1α [1]
  HIF1α induction observed with Di3 transfection: reversed
HIF1α [2]
  HIF1α protein levels after DMS induction: reversed DMS-induction of HIF1α completely
[3]
  Cell death under hypoxic conditions: significant cell death
PHD
  GFP fluorescence in DMS-treated cells: reduced GFP fluorescence

## O=C(O)CCC(=O)O [succinate, succinic acid]
[4]; HeLa cell extracts, succinate held constant at 1 mM
  PHD activity (appearance of non-hydroxylated HA-ODD): inhibition of PHD activity
[4]; cell extracts with α-ketoglutarate, Fe2+, ascorbate, DFO 5 mM, succinate 0.1-5.0 mM
  PHD activity in vitro (production of hydroxylated HA-ODDD, mobility on SDS-PAGE): decrease in the production of hydroxylated HA-ODDD
[4]; read-out: IC50 for inhibition of PHD activity (HA-ODDD hydroxylation), cell extracts with α-ketoglutarate, Fe2+, ascorbate
  IC50: 500 µM
